Tests used:
[1] = Rat oral pharmacokinetics; parameters: species or system Male Sprague Dawley rats; conditions: male, Sprague Dawley, in vivo
Description: Rat Oral Pharmacokinetics
Test compounds were formulated in solution formulations (10 w/v % Sulfobutylether-p-cyclodextrin; 90% w/v % 50 mM Citrate Buffer) and administered orally to a group of three Male Sprague Dawley rats. The animals were fasted overnight prior to dose administration and up to four hours after dosing. The test articles were administrated by oral gavage at a dose volume of 5 mL-eq/kg.
Blood samples were collected at predose and 0.25, 0.5, 1, 2, 4, 6, 8, 12, 24, 48 and 72 hours post dose into K2EDTA tubes and stored on wet ice until processed. Whole blood was processed to plasma by centrifugation (3500 rpm for 10 minutes at 5° C.) within 30 minutes of collection. Plasma samples were placed in Micronic 96 well tubes and stored at −80° C. until transferred. Plasma concentration of the test compounds was determined by LC-MS/MS. Pharmacokinetic parameters were estimated using non-compartment model analysis. The maximum observed concentration (Cmax) and area under the curve from time of dosing to last measured concentration (AUClast) were calculated and reported.

[2] = Mouse oral cassette pharmacokinetics; format: in vivo, male CD-1 mice; conditions: male, CD-1, mouse, in vivo, po, 30 mg/kg
How it was run: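 Male CD-1 mice (n=4) dosed orally by gavage at 30 mg-eq./kg per compound as cassettes of 1–3 compounds in 10 w/v % Captisol/50 mM citrate. Plasma sampled 0.5–24 h post dose, analysed by LC-MS/MS; Cmax and AUClast from non-compartmental analysis.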

GP2D (KRAS G12D) cells = assay: 2D cell viability assay (CellTiter-Glo); format: cell-based; conditions: 96 h; GP2D cells, 4 days, CellTiter-Glo luminescence; read-out: G12D 2D EC50
How it was run: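 GP2D (KRAS G12D) cells, 1000/well in RPMI + 10% FBS, were plated onto compound (1:3 DMSO series) and grown 4 days at 37 °C, 5% CO2 in 2D. CellTiter-Glo luminescence was read; EC50 is the concentration giving 50% signal decrease, from sigmoidal fit.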

C#Cc1c(F)ccc2cccc(-c3nc4c5c(nc(OC[C@@]67CCCN6C[C@H](F)C7)nc5c3F)N3C[C@H]5CC[C@H](N5)[C@H]3CCC4)c12 [Comp. Ex. 76, (6aR,7S,10R)-2-(8-ethynyl-7-fluoronaphthalen-1-yl)-1-fluoro-13-(((2R,7aS)-2-fluorotetrahydro-1H-pyrrolizin-7a(5H)-yl)methoxy)-5,6,6a,7,8,9,10,11-octahydro-4H-3,11a,12,14,15-pentaaza-7,10-methanocyclohepta[4,5]cycloocta[1,2,3-de]naphthalene, reference compound]
Rat Parent % F ([1]; 5 mg/kg): 2% | Rat Parent AUC ([1]; 5 mg/kg): 59 nM·h | Mouse Parent AUC (nM * h) [2]: 1,400 nM * h

C#Cc1c(F)ccc2cc(N)nc(-c3c(F)c4c5c(nc(OC[C@@]67CCCN6C[C@H](F)C7)nc5c3F)N3C[C@H]5CC[C@@H]([C@H]3CCC4)N5Cc3oc(=O)oc3CC)c12 (atropisomer, axis not shown; (aR)) [Example 79, 4-(((1S,4R,11S,15aR)-11-(3-amino-8-ethynyl-7-fluoroisoquinolin-1-yl)-10,12-difluoro-8-(((2R,7aS)-2-fluorotetrahydro-1H-pyrrolizin-7a(5H)-yl)methoxy)-2,3,4,5,13,14,15,15a-octahydro-1H-1,4-epiminoazepino[1′,2′:1,8]azocino[2,3,4-de]quinazolin-16-yl)methyl)-5-ethyl-1,3-dioxol-2-one]
EC50 (GP2D (KRAS G12D) cells): 1.2 nM | Rat Parent AUC ([1]; 7.5 mg/kg): 220 nM·h

CCc1c(F)ccc2cc(O)cc(-c3c(F)c4c5c(nc(OC[C@@]67CCCN6C[C@H](F)C7)nc5c3F)N3C[C@H]5CC[C@@H]([C@H]3CCC4)N5Cc3oc(=O)oc3C)c12 (atropisomer, axis not shown; (aR)) [Example 77, 4-(((1S,4R,11R,15aR)-11-(8-ethyl-7-fluoro-3-hydroxynaphthalen-1-yl)-10,12-difluoro-8-(((2R,7aS)-2-fluorotetrahydro-1H-pyrrolizin-7a(5H)-yl)methoxy)-2,3,4,5,13,14,15,15a-octahydro-1H-1,4-epiminoazepino[1′,2′:1,8]azocino[2,3,4-de]quinazolin-16-yl)methyl)-5-methyl-1,3-dioxol-2-one]
EC50 (GP2D (KRAS G12D) cells): 0.26 nM | Rat Parent AUC ([1]; 7.5 mg/kg): 430 nM·h

C#Cc1c(F)ccc2cc(N)cc(-c3nc4c5c(nc(OC[C@@]67CCCN6C[C@H](F)C7)nc5c3F)N3C[C@H]5CC[C@@H]([C@H]3CCC4)N5Cc3oc(=O)oc3CCC)c12 [Example 35, 4-(((6aR,7S,10R)-2-(3-amino-8-ethynyl-7-fluoronaphthalen-1-yl)-1-fluoro-13-(((2R,7aS)-2-fluorotetrahydro-1H-pyrrolizin-7a(5H)-yl)methoxy)-5,6,6a,7,8,9,10,11-octahydro-4H-3,11a,12,14,15-pentaaza-7,10-methanocyclohepta[4,5]cycloocta[1,2,3-de]naphthalen-15-yl)methyl)-5-propyl-1,3-dioxol-2-one]
EC50 (GP2D (KRAS G12D) cells): 0.46 nM | Rat Parent % F ([1]; 15 mg/kg): 5% | Rat Parent AUC ([1]; 15 mg/kg): 270 nM·h

C#Cc1c(F)ccc2cc(N)cc(-c3nc4c5c(nc(OC[C@@]67CCCN6C[C@H](F)C7)nc5c3F)N3C[C@H]5CC[C@@H]([C@H]3CCC4)N5Cc3oc(=O)oc3C(C)C)c12 [Example 80, 4-(((6aR,7S,10R)-2-(3-amino-8-ethynyl-7-fluoronaphthalen-1-yl)-1-fluoro-13-(((2R,7aS)-2-fluorotetrahydro-1H-pyrrolizin-7a(5H)-yl)methoxy)-5,6,6a,7,8,9,10,11-octahydro-4H-3,11a,12,14,15-pentaaza-7,10-methanocyclohepta[4,5]cycloocta[1,2,3-de]naphthalen-15-yl)methyl)-5-isopropyl-1,3-dioxol-2-one]
EC50 (GP2D (KRAS G12D) cells): 0.37 nM | Rat Parent % F ([1]; 7.5 mg/kg): 2.1% | Rat Parent AUC ([1]; 7.5 mg/kg): 57 nM·h
